Source: ChEMBL document CHEMBL1130559, “The synthesis and antitumor evaluation of unsymmetrical bis-imides” (Bioorg Med Chem Lett, 1997)

How the values were obtained:
Nucleic Acid [1] = experiment: In vitro DNA poly-dAdT binding by ethidium bromide displacement; type: nucleic-acid assay
Nucleic Acid [2] = experiment: In vitro DNA poly-dGdC binding by ethidium bromide displacement; type: nucleic-acid assay
L1210 = experiment: In vitro 50% inhibitory activity against L1210 murine leukemia; type: functional, cell-based; settings: Mus musculus
Mus musculus [3] = experiment: Compound was evaluated in vivo for the maximum tolerated dose (MTD) against MX-1 (breast) human solid tumors implanted in nude mice; type: functional
Mus musculus [4] = experiment: Compound was evaluated in vivo for the maximum tolerated dose against the following human solid tumors implanted in nude miceMX-1 (breast); type: functional
[5] = Solubility in water; type: physicochemical; settings: read-out: S
Mus musculus [6] = experiment: Compound was evaluated in vivo for the maximum tolerated dose against the following human solid tumors implanted in nude miceDLD-2 (colon); type: functional
Mus musculus [7] = experiment: Compound was evaluated in vivo for the percent tumor growth inhibition against human solid tumors implanted in nude mice LX-1 (lung), iv; type: functional
Mus musculus [8] = experiment: Compound was evaluated in vivo for the maximum tolerated dose against the following human solid tumors implanted in nude miceLX-1 (lung); type: functional
Mus musculus [9] = experiment: Compound was evaluated in vivo for the percent tumor growth inhibition against human solid tumors implanted in nude mice DLD-2 (colon), iv; type: functional
Mus musculus [10] = experiment: Compound was evaluated in vivo for the maximum tolerated dose against human solid tumors implanted in nude miceLX-1 (lung); type: functional
Mus musculus [11] = experiment: Compound was evaluated in vivo for the maximum tolerated dose against human solid tumors implanted in nude miceDLD-2 (colon); type: functional
Mus musculus [12] = experiment: Compound was evaluated in vivo for the percent tumor growth inhibition against human solid tumors implanted in nude mice MX-1 (breast), iv; type: functional
Mus musculus [13] = experiment: Compound was evaluated in vivo for the maximum tolerated dose against human solid tumors implanted in nude mice MX-1 (breast); type: functional
Mus musculus [14] = experiment: Compound was evaluated in vivo for the maximum tolerated dose against the following human solid tumors implanted in nude mice MX-1 (breast); type: functional

Structure (SMILES) | IC50 (Nucleic Acid [1]) | IC50 (Nucleic Acid [2]) | IC50 (L1210) | solubility [5] | other results
C[C@H](CNCCNC[C@@H](C)N1C(=O)c2cc([N+](=O)[O-])cc3c2c(cc2cccnc23)C1=O)N1C(=O)c2cccc3cc([N+](=O)[O-])cc(c23)C1=O | 1570 nM | 85 nM | 24 nM | – | –
C[C@H](CNCCNC[C@@H](C)N1C(=O)c2cccc3c2c(cc2ccccc23)C1=O)N1C(=O)c2cccc3cc([N+](=O)[O-])cc(c23)C1=O | 1020 nM | 970 nM | 420 nM | – | –
CS(=O)(=O)O.CS(=O)(=O)O.Cc1cnc2c(c1)cc1c3c(cc([N+](=O)[O-])cc32)C(=O)N([C@H](C)CNCCNC[C@@H](C)N2C(=O)c3cccc4cc([N+](=O)[O-])cc(c34)C2=O)C1=O | 610 nM | 73 nM | 41 nM | – | MTD (Mus musculus [3]): 6 mg/kg
C[C@H](CNCCNC[C@@H](C)N1C(=O)c2cc([N+](=O)[O-])cc3c2c(cc2ccncc23)C1=O)N1C(=O)c2cccc3cc([N+](=O)[O-])cc(c23)C1=O | 880 nM | 62 nM | 51 nM | – | –
CS(=O)(=O)O.CS(=O)(=O)O.C[C@H](CNCCNC[C@@H](C)N1C(=O)c2cccc3c2c(cc2ccncc23)C1=O)N1C(=O)c2cccc3cc([N+](=O)[O-])cc(c23)C1=O | 1200 nM | 88 nM | 35 nM | 65 mg/mL | MTD (Mus musculus [4]): 6 mg/kg; MTD (Mus musculus [6]): 6 mg/kg; Inhibition (Mus musculus [7]): 94%; MTD (Mus musculus [8]): 6 mg/kg; Inhibition (Mus musculus [9]): 99%
C[C@H](CNCCNC[C@@H](C)N1C(=O)c2cccc3c2c(cc2ccc(C(F)(F)F)cc23)C1=O)N1C(=O)c2cccc3cc([N+](=O)[O-])cc(c23)C1=O | 2550 nM | 170 nM | 450 nM | – | –
CS(=O)(=O)O.CS(=O)(=O)O.C[C@H](CNCCNC[C@@H](C)N1C(=O)c2ccc3c4c(ccc(c24)C1=O)CC3)N1C(=O)c2cccc3cc([N+](=O)[O-])cc(c23)C1=O | 1570 nM | 110 nM | 75 nM | 29 mg/mL | MTD (Mus musculus [10]): 10 mg/kg; MTD (Mus musculus [11]): 12.5 mg/kg; Inhibition (Mus musculus [12]): 97%; Inhibition (Mus musculus [7]): 95%; Inhibition (Mus musculus [9]): 98%; MTD (Mus musculus [13]): 12.5 mg/kg
CS(=O)(=O)O.CS(=O)(=O)O.C[C@H](CNCCNC[C@@H](C)N1C(=O)c2cccc3c2c(cc2cccnc23)C1=O)N1C(=O)c2cccc3cc([N+](=O)[O-])cc(c23)C1=O | 1080 nM | 73 nM | 250 nM | > 35.6 mg/mL | MTD (Mus musculus [3]): 6.2 mg/kg
CS(=O)(=O)O.CS(=O)(=O)O.C[C@H](CNCCNC[C@@H](C)N1C(=O)c2cccc3cc([N+](=O)[O-])cc(c23)C1=O)N1C(=O)c2cccc3cc([N+](=O)[O-])cc(c23)C1=O [BISNAFIDE DIMESYLATE] | 1000 nM | 40 nM | 34 nM | 3.5 mg/mL | MTD (Mus musculus [14]): 10 mg/kg; MTD (Mus musculus [6]): 10 mg/kg; Inhibition (Mus musculus [12]): >96%; Inhibition (Mus musculus [7]): 96%; MTD (Mus musculus [8]): 10 mg/kg; Inhibition (Mus musculus [9]): 99%
C[C@H](CNCCNC[C@@H](C)N1C(=O)c2cccc3c2c(cc2ccc(F)cc23)C1=O)N1C(=O)c2cccc3cc([N+](=O)[O-])cc(c23)C1=O | 1510 nM | 110 nM | 310 nM | – | –
C[C@H](CNCCNC[C@@H](C)N1C(=O)c2cccc3c2c(cc2cc(F)cnc23)C1=O)N1C(=O)c2cccc3cc([N+](=O)[O-])cc(c23)C1=O | 1420 nM | 59 nM | 64 nM | – | –
COc1ccc2cc3c4c(cccc4c2c1)C(=O)N([C@H](C)CNCCNC[C@@H](C)N1C(=O)c2cccc4cc([N+](=O)[O-])cc(c24)C1=O)C3=O | 800 nM | 130 nM | 250 nM | – | –
